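Each compound was tested at five concentrations against cells in 96-well plates for 48 hours. TGI: concentration producing complete growth inhibition.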
How the values were obtained:
Assay in all cases: NCI tumour cell line growth inhibition, 48 h
[1] = test system: HCT-116 colon
[2] = test system: RXF 393 renal
[3] = test system: COLO 205 colon
[4] = test system: SF-268 CNS
[5] = test system: 786-0 renal
[6] = test system: NCI-H226 lung
[7] = test system: UACC-62 melanoma
[8] = test system: SNB-75 CNS
[9] = test system: SNB-19 CNS
[10] = test system: IGROV1 ovarian
[11] = test system: PC-3 prostate
[12] = test system: SK-MEL-5 melanoma
[13] = test system: LOX IMVI melanoma
[14] = test system: SR leukemia

SMILES	TGI [1] [µM]	TGI [2] [µM]	TGI [3] [µM]	TGI [4] [µM]	TGI [5] [µM]	TGI [6] [µM]	TGI [7] [µM]	TGI [8] [µM]	TGI [9] [µM]	TGI [10] [µM]	TGI [11] [µM]	TGI [12] [µM]	TGI [13] [µM]	TGI [14] [µM]
O=c1ccn(C2OC(CN(O)CCC3C(CO)OC(n4ccc(=O)[nH]c4=O)C3O)C(O)C2O)c(=O)[nH]1 (stereo not drawn)	> 100	> 100	> 100	> 100	> 100	> 100	> 100	> 100	> 100	> 100	> 100	> 100		
Cn1c2ccccc2c(=O)c2[nH]c3ccccc3c21	> 100	> 100	> 100	62.4	> 100	> 100	> 100	99.8	> 100	> 100	> 100	> 100	> 100	
c1ccc(CC2(c3cc4ccccc4[nH]3)OCCO2)nc1	> 100	> 100	> 100	> 100	> 100	> 100	> 100	> 100	> 100	> 100	> 100	> 100	> 100	
CC1=C(C(=O)Nc2ccc([N+](=O)[O-])cc2)C(c2ccccc2F)C(C(=O)Nc2ccc([N+](=O)[O-])cc2)=C(C)N1	31.5	79.2	29.7	> 100	> 100	79.7		83.9	> 100	> 100		40.6	31.3	
Cc1cc(Cl)ccc1C1OC(=O)c2c1ccc1ccccc21 (stereo not drawn)	> 100		> 100	> 100	> 100	> 100	> 100	> 100	> 100	> 100		> 100	> 100	
Cc1nc2c(=O)n3c4c(cccc4c2o1)CCC3	> 100	> 100	> 100	> 100	> 100	> 100	> 100	> 100	> 100	> 100	> 100	> 100	> 100	
O=C1c2ccccc2-c2c1c(-c1cccc(Br)c1)nc1ccc3ccccc3c21	> 100	> 100	> 100	> 100	> 100	> 100	> 100	> 100	> 100		> 100		> 100	
Nc1n[nH]c(CCc2nc(N)n[nH]2)n1	> 100	> 100	> 100	> 100	> 100	> 100	> 100	> 100	> 100	> 100		> 100	> 100	
OC(C/C=N/Nc1ccccc1)(C(F)(F)Cl)C(F)(F)Cl	> 10	> 10	> 10	> 10	> 10	> 10	> 10	> 10	> 10	> 10	> 10	> 10	> 10	
CC(C)c1cc(OCC(O)CO)cc(C(C)C)c1 (stereo not drawn)	> 100	> 100	> 100	> 100	> 100	> 100	> 100	> 100	> 100	> 100		> 100	> 100	> 100
Cc1cccc(C(C)(C)C)c1NC(=O)CC1Sc2ccccc2NC1=O (stereo not drawn)	45.1		59.7	> 100	> 100	> 100	> 100	> 100	> 100	> 100		> 100		
Cc1ccccc1N=NC(C(=O)c1ccccc1)C(=O)c1ccccc1	54.4		> 100	> 100	78.3	32.2	59.7	70.5	85.5	> 100		55.9		
Cc1ccc(NC(=O)C(=O)Cc2cc[n+]([O-])cc2)cc1	> 100	> 100	> 100	> 100	> 100	> 100	> 100	> 100	> 100	> 100		> 100	> 100	> 100
COc1ccc(N=[N+]([O-])c2ccc(OC)cc2)cc1	> 100	> 100	> 100	> 100	> 100		> 100	> 100	> 100	> 100	> 100	> 100		
O=[N+]([O-])c1cccc(C2=NOC3C4CCC(C4)C23)c1 (stereo not drawn)	> 100		> 100	> 100	> 100	> 100		> 100		> 100		> 100		> 100
CCC1CN2CCC3(c4ccccc4)CC(C(=O)OC)=CC1C23 (stereo not drawn)	29.4	33.6	31.1	27.7	31.9	36.2	30.2	51	35	47.3		30.2	28.3	> 100
CC(C)(C)OC(=O)N(CCCCNCc1ccc2ccccc2c1)CCCNCc1ccc2ccccc2c1	2.4		2.72	3.29	2.8	3.08	3.08	2.99	3.22	3.21	4.06			
COc1ccc2c(c1)CCC(OS(=O)(=O)CC13CCC(CC1=O)C3(C)C)C2=O (stereo not drawn)	53.3		91.9	59.8	40.4	65.2	34.8	> 100	> 100			39.2	32.1	73.3
CCCC[C@H]1CCN2C[C@@H](O)[C@@H](O)[C@H]2[C@@H]1O	> 100		> 100	> 100	> 100	> 100	> 100	> 100	> 100	> 100	> 100	> 100	> 100	
O=C(CC1C(=O)c2ccccc2C1=C1C(=O)c2ccccc2C1=O)c1ccccc1 (stereo not drawn)		> 100	> 100	> 100	> 100	> 100	> 100	> 100	> 100	> 100		> 100	> 100	
N#Cc1sc2c(c1O)c(=O)n(-c1ccccc1)c(=S)n2-c1ccccc1		> 100	> 100	> 100	> 100	> 100	> 100	> 100	> 100	> 100		> 100	> 100	> 100
CCN(CC)CCO/N=C1/C=C2CCC3C(CC[C@@]4(C)C3CC[C@]4(C)O)[C@@]2(C)CC1 (stereo partly drawn)	16.7	72.2	14.6	31.2	12.7	10.2	8.57	9.15	45.4	21	88.1	26	14.8	
CCC(=O)N/N=C(\C=C\c1cccc(O)c1)c1sc(Nc2ccc(C)cc2[N+](=O)[O-])nc1C	> 100	> 100	> 100	> 100	> 100	> 100	> 100	> 100	> 100	> 100		> 100	> 100	> 100
N#CC1=C(Cl)NC(Cl)=C(C#N)C1c1c(Cl)cccc1Cl	34.3	59	32.8	99.6	68.5	> 100	73.4	> 100	> 100	> 100		39.1	31	> 100
Cc1cc(N(CCC#N)CCC#N)ccc1C=Nc1ccc(C(=O)NN2C(=O)/C(=C/c3ccc(N(CCC#N)CCC#N)cc3)N=C2c2cc([N+](=O)[O-])ccc2Cl)cc1	> 100	> 100	> 100	> 100	> 100	> 100	> 100	> 100	> 100	> 100		> 100	> 100	
O=C(/C=C1/Nc2ccc([N+](=O)[O-])cc2NC1O)c1cccc([N+](=O)[O-])c1 (stereo not drawn)	> 100	65.4	> 100	> 100	47.8	> 100	> 100	> 100	> 100	> 100		> 100	> 100	> 100
O=C(Nc1ccn(CCI)c(=O)n1)c1ccccc1	> 100	> 100	> 100	> 100	> 100	> 100	> 100	> 100		> 100		> 100	> 100	> 100
Cc1cc2c(cc1Cl)SC(NNc1ccc([N+](=O)[O-])cc1)=NS2(=O)=O	> 10	> 10	> 10	> 10	> 10	> 10	> 10	> 10	> 10	> 10	> 10	> 10	> 10	

Source: PubChem BioAssay (NCI)
